Source: patent publication USRE47689E1, “Compounds for treating spinal muscular atrophy” (PTC Therapeutics, Inc., priority 2011, dated 2019)

Key:
[1] = tested on: SMN2 minigene (full length SMN2 minigene mRNA containing SMN2 exon 7); assay: SMN2 minigene mRNA splicing RT-qPCR assay in cultured cells; type: cell-based, human; conditions: Homo sapiens, HEK293-H; HEK293H cells stably transfected with SMN2-A minigene; 24 hours; 7-point concentration curve; 1.5-fold relative to vehicle-treated cells; read-out: EC1.5x for production of full length SMN2 mRNA
Outline: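 Read-out: full-length (exon 7-included) SMN2 minigene mRNA by multiplex RT-qPCR with GAPDH, efficiency-corrected (1+E)^−Ct, GAPDH-normalized and divided by vehicle. Stably transfected HEK293H cells, 24 h compound exposure, duplicates per concentration. Value is EC1.5x, reported as star ranges.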

[2] = tested on: Smn protein; assay: Smn protein assay in cultured cells (SMN HTRF); type: cell-based, human; conditions: 48 hours; for EC1.5x (concentration giving 1.5-fold Smn protein increase): SMA Type 1 patient fibroblast cells (GM03813), 7-point concentration curve, SMN HTRF, concentration producing 1.5 times Smn protein vs DMSO vehicle control, read-out: EC1.5x for Smn protein expression; for maximum fold (Fold) increase of Smn protein: SMA patient fibroblast cells, 7-point concentration data, fold increase relative to vehicle control (SMN HTRF)
Outline: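 Lysates in RIPA with protease inhibitors are incubated overnight at room temperature with HTRF anti-SMN antibodies. EC1.5x is derived from fold increase in ΔF over vehicle.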

Row | melting point | SMILES | EC (1.5-fold) [1] [µM] | EC1.5x (concentration giving 1.5-fold Smn protein increase) [2] [nM] | maximum fold (Fold) increase of Smn protein [2]
1 | 166 to 171 °C | Cc1cn2cc(-c3cc4ccc(CCN5CCC[C@@H]5CO)cc4oc3=O)nc2c(C)n1 [Compound 874, 3-(6,8-dimethylimidazo[1,2-a]pyrazin-2-yl)-7-{2-[(2R)-2-(hydroxymethyl)pyrrolidin-1-yl]ethyl}-2H-chromen-2-one] | < 0.1 | < 300 | ***** (fold increase >1.65)
2 | 180 to 182 °C | CC(=O)O.CCN1CCN(c2ccc3cc(-c4ccc5nc(C)sc5c4)c(=O)oc3c2)C[C@@H]1C [Compound 777, 7-[(3S)-4-ethyl-3-methylpiperazin-1-yl]3-(2-methyl-1,3-benzothiazol-6-yl)-2H-chromen-2-one acetate] | 3 to 30 | – | * (maximum fold increase of ≤1.2)
3 | 213 to 219 °C | C[C@@H]1CN[C@@H](C)CN1c1ccc2cc(-c3cn4ccc(C(F)(F)F)cc4n3)c(=O)oc2c1 [Compound 277, 7-[(2R,5S)-2,5-dimethylpiperazin-1-yl]-3-[7-(trifluoromethyl)imidazo[1,2-a]pyridin-2-yl]-2H-chromen-2-one] | 0.3 to 1 | – | * (maximum fold increase of ≤1.2)
4 | 191 to 198 °C | Cc1cc(F)cn2cc(-c3cc4ccc(N5CCCN(C)CC5)cc4oc3=O)nc12 [Compound 330, 3-(6-fluoro-8-methylimidazo[1,2-a]pyridin-2-yl)-7-(4-methyl-1,4-diazepan-1-yl)-2H-chromen-2-one] | 0.3 to 1 | – | * (maximum fold increase of ≤1.2)
5 | 265 to 270 °C | Cc1ccc2nc(-c3cc4c(F)cc(N5CCNCC5)cc4oc3=O)cn2c1 [Cpd 162, 5-fluoro-3-(6-methylimidazo[1,2-a]pyridin-2-yl)-7-(piperazin-1-yl)-2H-chromen-2-one] | 0.1 to 0.3 | 300 to 1000 | *** (fold increase between >1.35 and ≤1.5)
6 | 168 to 172 °C | Cc1cn2cc(-c3cc4ccc(CCN(C)CCO)cc4oc3=O)nc2c(C)n1 [Compound 871, 3-(6,8-dimethylimidazo[1,2-a]pyrazin-2-yl)-7-{2-[(2-hydroxyethyl)(methyl)amino]ethyl}-2H-chromen-2-one] | < 0.1 | < 300 | **** (fold increase between >1.5 and ≤1.65)
7 | 249 to 258 °C | Cc1cn2cc(-c3cc4ccc(N5C[C@@H]6CN(C(C)C)C[C@@H]6C5)cc4oc3=O)nc2c(C)n1 [Compound 743, 3-(6,8-dimethylimidazo[1,2-a]pyrazin-2-yl)-7-[(3aR,6aS)-5-(propan-2-yl)hexahydropyrrolo[3,4-c]pyrrol-2(1H)-yl]-2H-chromen-2-one] | < 0.1 | < 300 | ***** (fold increase >1.65)
8 | 212 to 214 °C | Cc1cn2cc(-c3cc4ccc(N5CCN(CC(C)(C)O)CC5)cc4oc3=O)nc2c(C)n1 [Compound 962, 3-(6,8-dimethylimidazo[1,2-a]pyrazin-2-yl)-7-[4-(2-hydroxy-2-methylpropyl)piperazin-1-yl]-2H-chromen-2-one] | < 0.1 | < 300 | ***** (fold increase >1.65)
9 | 268 to 270 °C | CCN1CCC(c2ccc3cc(-c4ccc5nc(C)cn5c4)c(=O)oc3c2)CC1 [Compound 827, 7-(1-ethylpiperidin-4-yl)-3-(2-methylimidazo[1,2-a]pyridin-6-yl)-2H-chromen-2-one] | < 0.1 | < 300 | ***** (fold increase >1.65)
10 | 123 to 126 °C | COc1ccc(-c2cc3ccc(N4CCN[C@@H](C)C4)cc3oc2=O)cc1 [Compound 449, 3-(4-methoxyphenyl)-7-[(3S)-3-methylpiperazin-1-yl]-2H-chromen-2-one] | 1 to 3 | – | * (maximum fold increase of ≤1.2)
11 | 199 to 204 °C | Cc1cc2cc(-c3cc4ccc(N5CCN(C)[C@H](C)C5)cc4oc3=O)oc2c(C)n1 [Compound 807, 3-(5,7-dimethylfuro[2,3-c]pyridin-2-yl)-7-[(3R)-3,4-dimethylpiperazin-1-yl]-2H-chromen-2-one] | < 0.1 | < 300 | ***** (fold increase >1.65)
12 | 143 to 147 °C | Cc1cn2cc(-c3cc4ccc(CCCNCc5ccccc5)cc4oc3=O)nc2c(C)n1 [Cpd 933, 7-[3-(benzylamino)propyl]-3-(6,8-dimethylimidazo[1,2-a]pyrazin-2-yl)-2H-chromen-2-one] | < 0.1 | – | * (maximum fold increase of ≤1.2)
13 | 268 to 275 °C | Cc1cc(F)c2nc(-c3cc4ccc(N5CCN6CCCCC6C5)cc4oc3=O)cn2c1 (centres unmarked) [Compound 612, 3-(8-fluoro-6-methylimidazo[1,2-a]pyridin-2-yl)-7-(octahydro-2H-pyrido[1,2-a]pyrazin-2-yl)-2H-chromen-2-one] | 0.3 to 1 | – | ** (fold increase between >1.2 and ≤1.35)
14 | 180 to 182 °C | Cc1nccn2cc(-c3cc4ccc(N5CCCN(C)CC5)cc4oc3=O)nc12 [Compound 558, 7-(4-methyl-1,4-diazepan-1-yl)-3-(8-methylimidazo[1,2-a]pyrazin-2-yl)-2H-chromen-2-one] | < 0.1 | 300 to 1000 | **** (fold increase between >1.5 and ≤1.65)
15 | 215 to 221 °C | CCN1CCC[C@@H]2CN(c3ccc4cc(-c5cn6cc(C)nc(C)c6n5)c(=O)oc4c3)C[C@@H]21 [Compound 786, 3-(6,8-dimethylimidazo[1,2-a]pyrazin-2-yl)-7-[(4aR,7aR)-1-ethyloctahydro-6H-pyrrolo[3,4-b]pyridin-6-yl]-2H-chromen-2-one] | < 0.1 | < 300 | **** (fold increase between >1.5 and ≤1.65)
16 | 199 to 202 °C | Cc1cn2cc(-c3cc4ccc(OCCN(CCO)CCO)cc4oc3=O)nc2c(C)n1 [Compound 896, 7-{2-[bis(2-hydroxyethyl)amino]ethoxy}-3-(6,8-dimethylimidazo[1,2-a]pyrazin-2-yl)-2H-chromen-2-one] | < 0.1 | < 300 | ***** (fold increase >1.65)
17 | 175 to 177 °C | Cc1ccn2nc(-c3cc4ccc(N5CCCN(C)CC5)cc4oc3=O)cc2c1 [Compound 310, 7-(4-methyl-1,4-diazepan-1-yl)-3-(5-methylpyrazolo[1,5-a]pyridin-2-yl)-2H-chromen-2-one] | 0.3 to 1 | – | ** (fold increase between >1.2 and ≤1.35)
18 | 202 to 204 °C | Cc1cn2cc(-c3cc4ccc(N5CCN[C@@H](C)C5)cc4oc3=O)cc2cn1 [Compound 647, 7-[(3S)-3-methylpiperazin-1-yl]-3-(3-methylpyrrolo[1,2-a]pyrazin-7-yl)-2H-chromen-2-one] | < 0.1 | < 300 | **** (fold increase between >1.5 and ≤1.65)
19 | 198 to 207 °C | COc1ccn2cc(-c3cc4ccc(N5CCCN(C)CC5)cc4oc3=O)nc2c1 [Compound 436, 3-(7-methoxyimidazo[1,2-a]pyridin-2-yl)-7-(4-methyl-1,4-diazepan-1-yl)-2H-chromen-2-one] | 3 to 30 | – | * (maximum fold increase of ≤1.2)
20 | 210 to 213 °C | Cc1nccn2cc(-c3cc4ccc(N5CCCNCC5)cc4oc3=O)cc12 [Compound 587, 7-(1,4-diazepan-1-yl)-3-(1-methylpyrrolo[1,2-a]pyrazin-7-yl)-2H-chromen-2-one] | < 0.1 | < 300 | **** (fold increase between >1.5 and ≤1.65)
21 | 250 to 258 °C | Cc1nccn2cc(-c3cc4ccc(N5C[C@@H](C)N[C@@H](C)C5)cc4oc3=O)nc12 [Compound 552, 7-[(3R,5S)-3,5-dimethylpiperazin-1-yl]-3-(8-methylimidazo[1,2-a]pyrazin-2-yl)-2H-chromen-2-one] | < 0.1 | < 300 | **** (fold increase between >1.5 and ≤1.65)
22 | 240 °C (dec.) | COc1ccc(-c2cc3c(F)cc(N4CCNCC4)cc3oc2=O)cc1OC [Compound 404, 3-(3,4-dimethoxyphenyl)-5-fluoro-7-(piperazin-1-yl)-2H-chromen-2-one] | 0.3 to 1 | 1000 to 3000 | **** (fold increase between >1.5 and ≤1.65)
23 | 218 to 220 °C | Cc1ccc2nc(-c3cc4ccc(N5CCCNCC5)cc4oc3=O)cn2c1 [Compound 176, 7-(1,4-diazepan-1-yl)-3-(6-methylimidazo[1,2-a]pyridin-2-yl)-2H-chromen-2-one] | 1 to 3 | – | * (maximum fold increase of ≤1.2)
